Legend:
cells = conditions: Homo sapiens, MCF-10A, read-out: MCF10A IC50
H1047R PIK3CA enzyme = H1047R PIK3CA enzyme (Homo sapiens, UniProt P42336, H1047R); experiment: ADP-Glo Biochemical PIK3CA Kinase Assay
H1047R PIK3CA enzyme, sequence (P42336 whole entry H1047R): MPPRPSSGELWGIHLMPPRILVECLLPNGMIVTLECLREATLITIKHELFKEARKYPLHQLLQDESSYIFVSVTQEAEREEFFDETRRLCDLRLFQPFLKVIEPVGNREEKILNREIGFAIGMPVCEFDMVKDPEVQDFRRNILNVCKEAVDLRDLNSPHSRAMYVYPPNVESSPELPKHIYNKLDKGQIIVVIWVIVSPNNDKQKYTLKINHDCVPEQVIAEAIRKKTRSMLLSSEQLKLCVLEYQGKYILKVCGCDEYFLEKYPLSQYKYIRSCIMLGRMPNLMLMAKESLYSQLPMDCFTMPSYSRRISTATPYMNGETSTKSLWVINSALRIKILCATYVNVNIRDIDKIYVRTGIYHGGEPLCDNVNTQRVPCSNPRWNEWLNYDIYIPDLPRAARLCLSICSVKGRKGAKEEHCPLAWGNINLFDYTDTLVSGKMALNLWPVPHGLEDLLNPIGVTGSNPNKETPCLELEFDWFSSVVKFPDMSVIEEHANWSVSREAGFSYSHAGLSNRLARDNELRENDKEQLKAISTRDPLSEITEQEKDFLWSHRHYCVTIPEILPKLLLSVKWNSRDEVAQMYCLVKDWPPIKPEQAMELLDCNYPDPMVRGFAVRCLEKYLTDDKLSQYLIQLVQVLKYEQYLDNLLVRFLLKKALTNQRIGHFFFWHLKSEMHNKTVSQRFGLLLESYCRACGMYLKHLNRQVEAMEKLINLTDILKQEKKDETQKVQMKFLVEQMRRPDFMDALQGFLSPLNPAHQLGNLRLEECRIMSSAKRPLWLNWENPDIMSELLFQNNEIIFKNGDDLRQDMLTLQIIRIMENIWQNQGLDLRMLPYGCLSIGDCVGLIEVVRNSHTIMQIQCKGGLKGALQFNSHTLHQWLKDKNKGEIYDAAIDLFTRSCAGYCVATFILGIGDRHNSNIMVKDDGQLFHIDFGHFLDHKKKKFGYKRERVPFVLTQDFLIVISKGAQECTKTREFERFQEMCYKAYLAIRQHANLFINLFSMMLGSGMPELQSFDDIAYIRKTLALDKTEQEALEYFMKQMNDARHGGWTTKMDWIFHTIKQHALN
H1047R PIK3CA enzyme, sequence (P27986 whole entry partner): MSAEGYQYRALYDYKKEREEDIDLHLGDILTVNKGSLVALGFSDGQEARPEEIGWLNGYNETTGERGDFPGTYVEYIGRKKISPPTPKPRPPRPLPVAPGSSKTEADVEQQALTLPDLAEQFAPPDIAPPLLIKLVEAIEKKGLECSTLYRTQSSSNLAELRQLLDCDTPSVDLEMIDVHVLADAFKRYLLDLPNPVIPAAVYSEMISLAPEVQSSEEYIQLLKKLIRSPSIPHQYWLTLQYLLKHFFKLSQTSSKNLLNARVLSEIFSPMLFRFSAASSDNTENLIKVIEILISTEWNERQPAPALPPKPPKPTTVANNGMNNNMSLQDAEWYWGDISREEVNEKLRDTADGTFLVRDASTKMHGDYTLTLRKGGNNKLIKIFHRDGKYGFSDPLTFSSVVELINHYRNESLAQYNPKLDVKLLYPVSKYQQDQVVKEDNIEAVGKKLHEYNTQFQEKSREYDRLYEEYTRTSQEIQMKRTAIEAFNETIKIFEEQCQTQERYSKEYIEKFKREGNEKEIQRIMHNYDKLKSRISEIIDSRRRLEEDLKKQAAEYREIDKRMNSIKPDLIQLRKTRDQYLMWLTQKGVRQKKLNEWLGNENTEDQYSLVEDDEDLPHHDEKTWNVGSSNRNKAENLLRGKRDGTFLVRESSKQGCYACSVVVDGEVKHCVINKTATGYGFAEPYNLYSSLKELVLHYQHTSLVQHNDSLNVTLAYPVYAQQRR

Structure (SMILES): O=C1N[C@@H](c2cc(F)ccc2Cl)c2c(NC(=O)N3C[C@H](O)c4cc(F)ccc43)cc(-n3cccn3)cc21 (single isomer, unassigned) [Compound I-2364]
- IC50 (cells): 1 to 5 µM
- IC50 (H1047R PIK3CA enzyme): ≤ 0.1 µM

Structure (SMILES): O=C(Nc1cc(NC2=NCC(C(F)(F)F)O2)cc2c1C(c1cc(F)ccc1Cl)NC2=O)c1cc(F)cc(C(F)(F)F)c1 (centres unmarked) [Compound I-2297]
- IC50 (cells): 1 to 5 µM
- IC50 (H1047R PIK3CA enzyme): ≤ 0.1 µM

Structure (SMILES): O=C1N[C@H](c2cc(F)ccc2Cl)c2c(NC(=O)N3C[C@](O)(C(F)(F)F)c4cc(F)ccc43)ccc(Cl)c21 (single isomer, unassigned) [Compound I-2618]
- IC50 (cells): < 1 µM
- IC50 (H1047R PIK3CA enzyme): ≤ 0.1 µM

Structure (SMILES): O=C(Nc1cc(-c2cnc3ccnn3c2)cc2c1C(c1cc(F)ccc1Cl)NC2=O)c1cc(F)cc(C(F)(F)F)c1 (centres unmarked) [Compound I-1047]
- IC50 (cells): < 1 µM
- IC50 (H1047R PIK3CA enzyme): ≤ 0.1 µM

Structure (SMILES): Cc1[nH]ncc1Nc1cc(NC(=O)c2cc(F)cc(C(F)(F)F)c2)c2c(c1)C(=O)NC2c1cc(F)ccc1Cl (centres unmarked) [Compound I-1017]
- IC50 (cells): < 1 µM
- IC50 (H1047R PIK3CA enzyme): ≤ 0.1 µM

Structure (SMILES): N#CCc1cc(NC(=O)N2C[C@](O)(C(F)F)c3cc(F)ccc32)c2c(c1)C(=O)N[C@H]2c1cc(F)ccc1Cl (single isomer, unassigned) [Compound I-2601]
- IC50 (cells): < 1 µM
- IC50 (H1047R PIK3CA enzyme): ≤ 0.1 µM

Structure (SMILES): CNc1cc(NC(=O)N2C[C@@](O)(C(F)(F)F)c3cc(F)ccc32)c2c(c1)C(=O)N[C@@H]2c1cc(F)ccc1Cl (single isomer, unassigned) [Compound I-2640]
- IC50 (cells): < 1 µM
- IC50 (H1047R PIK3CA enzyme): ≤ 0.1 µM

Structure (SMILES): O=C1N[C@@H](c2cc(F)ccc2Cl)c2c(Nc3nccc4c(C(F)(F)F)cc(F)cc34)cc(Br)cc21 [Compound I-1109]
- IC50 (cells): < 1 µM
- IC50 (H1047R PIK3CA enzyme): ≤ 0.1 µM

Structure (SMILES): Nc1cnc(-c2cc(NC(=O)c3cc(F)cc(C(F)(F)F)c3)c3c(c2)C(=O)NC3c2cc(F)ccc2Cl)cn1 (centres unmarked) [Compound I-1102]
- IC50 (cells): < 1 µM
- IC50 (H1047R PIK3CA enzyme): ≤ 0.1 µM

Structure (SMILES): Cc1cc2cnn(C)c2cc1-c1cc(NC(=O)c2cc(F)cc(C(F)(F)F)c2)c2c(c1)C(=O)NC2c1cc(F)ccc1Cl (centres unmarked) [Compound I-933]
- IC50 (cells): 5 to 10 µM
- IC50 (H1047R PIK3CA enzyme): 0.1 to 0.5 µM

Structure (SMILES): Cc1cc2ncc(-c3cc(NC(=O)c4cc(F)cc(C(F)(F)F)c4)c4c(c3)C(=O)NC4c3cc(F)ccc3Cl)cn2n1 (centres unmarked) [Compound I-1032]
- IC50 (cells): < 1 µM
- IC50 (H1047R PIK3CA enzyme): ≤ 0.1 µM

Structure (SMILES): Cn1nc(-c2cc(NC(=O)c3cc(F)cc(C(F)(F)F)c3)c3c(c2)C(=O)NC3c2cc(F)ccc2Cl)ccc1=O (centres unmarked) [Compound I-1076]
- IC50 (cells): < 1 µM
- IC50 (H1047R PIK3CA enzyme): ≤ 0.1 µM

Structure (SMILES): O=C1NC(c2cc(F)ccc2Cl)c2c(NC(=O)N3CC(O)(C(F)(F)F)c4cc(F)ccc43)cc(F)cc21 (centres unmarked) [Compound I-2623]
- IC50 (cells): < 1 µM
- IC50 (H1047R PIK3CA enzyme): ≤ 0.1 µM

Structure (SMILES): Cc1ccccc1C1NC(=O)c2cc(C(=O)NCC(F)F)cc(NC(=O)c3nsc4ccccc34)c21 (centres unmarked) [Compound I-121]
- IC50 (cells): < 1 µM
- IC50 (H1047R PIK3CA enzyme): ≤ 0.1 µM

Structure (SMILES): O=C(Nc1cc(-c2cnn(C(F)F)c2)cc2c1[C@H](c1cc(F)ccc1Cl)NC2=O)c1cc(F)cc(C(F)(F)F)c1 (single isomer, unassigned) [Compound I-1740]
- IC50 (cells): < 1 µM
- IC50 (H1047R PIK3CA enzyme): ≤ 0.1 µM

Structure (SMILES): Cc1ccccc1[C@@H]1NC(=O)c2cccc(NC(=O)c3csc4ccccc34)c21 [Compound I-5]
- IC50 (cells): 1 to 5 µM
- IC50 (H1047R PIK3CA enzyme): ≤ 0.1 µM

Structure (SMILES): O=C1NC(c2cc(F)ccc2Cl)c2c(NC(=O)N3CC(O)(C(F)(F)F)c4cc(F)ccc43)cc(Cl)cc21 (mixture of isomers) [Compound I-2482]
- IC50 (cells): < 1 µM
- IC50 (H1047R PIK3CA enzyme): ≤ 0.1 µM

Structure (SMILES): O=C1N[C@H](c2cc(F)ccc2Cl)c2c(NC(=O)N3C[C@@H](O)c4cc(F)ccc43)cc(Cl)cc21 (single isomer, unassigned) [Compound I-2402]
- IC50 (cells): < 1 µM
- IC50 (H1047R PIK3CA enzyme): ≤ 0.1 µM

Structure (SMILES): NCCc1cc(NC(=O)N2C[C@@](O)(C(F)(F)F)c3cc(F)ccc32)c2c(c1)C(=O)N[C@H]2c1cc(F)ccc1Cl (single isomer, unassigned) [Compound I-2581]
- IC50 (cells): 10 to 36 µM
- IC50 (H1047R PIK3CA enzyme): ≤ 0.1 µM

Structure (SMILES): O=C(Nc1cc(NC2=NCCO2)cc2c1C(c1cc(F)ccc1Cl)NC2=O)c1cc(F)cc(C(F)(F)F)c1 (centres unmarked) [Compound I-2256]
- IC50 (cells): 1 to 5 µM
- IC50 (H1047R PIK3CA enzyme): ≤ 0.1 µM

Structure (SMILES): O=C(Nc1cc(-c2cnsc2)cc2c1C(c1cc(F)ccc1Cl)NC2=O)c1cc(F)cc(C(F)(F)F)c1 (centres unmarked) [Compound I-1068]
- IC50 (cells): < 1 µM
- IC50 (H1047R PIK3CA enzyme): ≤ 0.1 µM

Structure (SMILES): O=C(Nc1cc(N2CCOCC2)cc2c1C(c1cc(F)ccc1Cl)NC2=O)c1cc(F)cc(C(F)(F)F)c1 (centres unmarked) [Compound I-1164]
- IC50 (cells): < 1 µM
- IC50 (H1047R PIK3CA enzyme): ≤ 0.1 µM

Structure (SMILES): O=C(Nc1cc(-c2ccn[nH]2)cc2c1[C@H](c1cc(F)ccc1Cl)NC2=O)c1cc(F)cc(C(F)(F)F)c1 [Compound I-865]
- IC50 (cells): < 1 µM
- IC50 (H1047R PIK3CA enzyme): ≤ 0.1 µM

Structure (SMILES): O=C(Nc1cc(-c2ccc3ncncc3c2)cc2c1C(c1cc(F)ccc1Cl)NC2=O)c1cc(F)cc(C(F)(F)F)c1 (centres unmarked) [Compound I-1093]
- IC50 (cells): < 1 µM
- IC50 (H1047R PIK3CA enzyme): ≤ 0.1 µM

Structure (SMILES): O=C(Nc1cc(-n2cccn2)cc2c1C(c1cc(F)ccc1Cl)NC2=O)c1cc(F)cc(C(F)(F)F)c1 (centres unmarked) [Compound I-960]
- IC50 (cells): < 1 µM
- IC50 (H1047R PIK3CA enzyme): ≤ 0.1 µM

Structure (SMILES): Cn1cc(-c2cc(NC(=O)c3cc(F)cc(C(F)(F)F)c3)c3c(c2)C(=O)NC3c2cc(F)ccc2Cl)ncc1=O (centres unmarked) [Compound I-1016]
- IC50 (cells): < 1 µM
- IC50 (H1047R PIK3CA enzyme): ≤ 0.1 µM

Structure (SMILES): O=C(Nc1cc(Nc2ncco2)cc2c1C(c1cc(F)ccc1Cl)NC2=O)c1cc(F)cc(C(F)(F)F)c1 (centres unmarked) [Compound I-961]
- IC50 (cells): < 1 µM
- IC50 (H1047R PIK3CA enzyme): ≤ 0.1 µM

Structure (SMILES): O=C(Nc1cc(NC2=N[C@@H](C(F)(F)F)CO2)cc2c1[C@H](c1cc(F)ccc1Cl)NC2=O)c1cc(F)cc(C(F)(F)F)c1 (single isomer, unassigned) [Compound I-2388]
- IC50 (cells): 1 to 5 µM
- IC50 (H1047R PIK3CA enzyme): ≤ 0.1 µM

Structure (SMILES): Cc1coc(Nc2cc(NC(=O)c3cc(F)cc(C(F)(F)F)c3)c3c(c2)C(=O)NC3c2cc(F)ccc2Cl)n1 (centres unmarked) [Compound I-964]
- IC50 (cells): < 1 µM
- IC50 (H1047R PIK3CA enzyme): ≤ 0.1 µM

Structure (SMILES): NC(=O)c1nc(-c2cc(NC(=O)c3cc(F)cc(C(F)(F)F)c3)c3c(c2)C(=O)NC3c2cc(F)ccc2Cl)cs1 (centres unmarked) [Compound I-1067]
- IC50 (cells): < 1 µM
- IC50 (H1047R PIK3CA enzyme): ≤ 0.1 µM

Structure (SMILES): C[C@@H](C#N)Cn1cc(-c2cc(NC(=O)N3C[C@@H](O)c4cc(F)ccc43)c3c(c2)C(=O)N[C@H]3c2cc(F)ccc2Cl)cn1 (single isomer, unassigned) [Compound I-2503]
- IC50 (cells): 5 to 10 µM
- IC50 (H1047R PIK3CA enzyme): ≤ 0.1 µM

Structure (SMILES): O=C(Nc1cc(-c2cn3ncnc3cn2)cc2c1C(c1cc(F)ccc1C(F)F)NC2=O)c1cc(F)cc(C(F)(F)F)c1 (centres unmarked) [Compound I-2185]
- IC50 (cells): < 1 µM
- IC50 (H1047R PIK3CA enzyme): ≤ 0.1 µM

Structure (SMILES): Cc1ncncc1-c1cc(NC(=O)c2cc(F)cc(C(F)(F)F)c2)c2c(c1)C(=O)NC2c1cc(F)ccc1Cl (centres unmarked) [Compound I-985]
- IC50 (cells): < 1 µM
- IC50 (H1047R PIK3CA enzyme): ≤ 0.1 µM

Structure (SMILES): O=C(Nc1cc(-c2ccc3ncnn3c2)cc2c1[C@H](c1cc(F)ccc1Cl)NC2=O)c1cc(F)cc(OC(F)(F)F)c1 (stereo in doubt) [Compound I-1111]
- IC50 (cells): < 1 µM
- IC50 (H1047R PIK3CA enzyme): ≤ 0.1 µM

Structure (SMILES): Nc1cc(NC(=O)N2C[C@@H](O)c3cc(F)ccc32)c2c(c1)C(=O)N[C@@H]2c1cc(F)ccc1Cl (single isomer, unassigned) [Compound I-2410]
- IC50 (cells): < 1 µM
- IC50 (H1047R PIK3CA enzyme): ≤ 0.1 µM

Structure (SMILES): CC(C#N)c1cc(NC(=O)c2cc(F)cc(C(F)(F)F)c2)c2c(c1)C(=O)N[C@H]2c1cc(F)ccc1Cl (some centres unmarked) [Compound I-2290]
- IC50 (cells): < 1 µM
- IC50 (H1047R PIK3CA enzyme): ≤ 0.1 µM

Structure (SMILES): N#CCc1cc(NC(=O)c2cc(F)cc(C(F)(F)F)c2)c2c(c1)C(=O)N[C@H]2c1cc(F)ccc1Cl (racemic) [Compound I-1088]
- IC50 (cells): < 1 µM
- IC50 (H1047R PIK3CA enzyme): ≤ 0.1 µM
